Measurements reported in patent US11632953B2, “Method for controlling hematophagous or sap-feeding arthropods” (Board of Supervisors of Louisiana State University and …, priority 2016, dated 2023).
Entries after “also recorded” stand apart in the source; their conditions may differ.

Columns and labels:
[1] = tested on: honey bees (Apis mellifera); assay: acute topical toxicity in adult honey bees; assay type: in vivo; settings: 48 h, VU041 1 mg/bee (~10 μg/mg), bifenthrin 0.1 μg/bee
Experimental: Frames of late-stage honeybee (A. mellifera) pupae were taken from four colonies at The Ohio State University Honey Bee Lab in Wooster, Ohio, and maintained in a dark humid incubator at 34° C. (Darwin Chambers Co., St. Louis, Mo., model H024) until adult bees emerged. New adults were brushed from frames daily, placed in wooden screen cages (21×14×12 cm), and provided with 1:1 (w/w) sucrose in water.
Acute toxicity experiments in adult bees were performed as follows: Twenty-four hours after emergence, adult honey bees in cages were anaesthetized with carbon dioxide, divided into groups of approximately 20 bees each, and placed in plastic-coated paper cups (177 cm^3; UNIQ Paper Yogurt Cup, Frozen Dessert Supplies, Gilbert, Ariz.) covered with cotton cheesecloth. […] As a positive control, some bees were treated with 3 μl of bifenthrin (0.1 μg/μl). Negative control bees were treated with 3 μl of solvent. Applications were made using a 20 μl micropipette (Fisherbrand Finnpipette F2, Fisher Scientific, Pittsburgh, Pa.) with a disposable plastic tip. […] Toxicity to honey bees was recorded at 48 h, rather than the 24 h used for mosquitoes, to allow for the possibility of delayed toxicity due to the larger body size of the bee. Bees showing no movement 48 h after treatment were scored as dead.

AeKir1 = AeKir1 (Aedes aegypti, UniProt L0EQS9); assay: thallium (Tl+) flux assay; assay type: cell-based; settings: means (n = 3); read-out: IC50 μM (95% Cl)
Chain of AeKir1 (L0EQS9 1-486): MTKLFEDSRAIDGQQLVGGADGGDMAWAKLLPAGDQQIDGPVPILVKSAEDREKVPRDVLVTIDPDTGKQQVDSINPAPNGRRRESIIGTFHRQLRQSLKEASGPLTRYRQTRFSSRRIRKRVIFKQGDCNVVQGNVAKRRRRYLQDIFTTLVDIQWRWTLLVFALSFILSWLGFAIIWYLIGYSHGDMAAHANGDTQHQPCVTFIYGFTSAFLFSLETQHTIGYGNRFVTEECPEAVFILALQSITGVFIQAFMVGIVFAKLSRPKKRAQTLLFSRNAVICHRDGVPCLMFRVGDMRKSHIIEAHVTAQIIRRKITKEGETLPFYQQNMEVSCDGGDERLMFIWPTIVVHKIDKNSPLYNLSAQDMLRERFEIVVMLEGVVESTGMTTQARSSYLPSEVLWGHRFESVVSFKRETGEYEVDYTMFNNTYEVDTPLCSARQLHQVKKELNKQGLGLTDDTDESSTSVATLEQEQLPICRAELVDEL

[2] = tested on: isolated tick salivary gland; assay: fluid secretion (salivation) in the isolated tick salivary gland, modified Ramsay assay; design: species or system Amblyomma americanum; settings: isolated tick salivary gland
Kir7.1 = Kir7.1 (Homo sapiens (Human), UniProt O60928); assay: thallium (Tl+) flux assay; assay type: cell-based, mammalian
Chain of Kir7.1 (O60928 whole entry): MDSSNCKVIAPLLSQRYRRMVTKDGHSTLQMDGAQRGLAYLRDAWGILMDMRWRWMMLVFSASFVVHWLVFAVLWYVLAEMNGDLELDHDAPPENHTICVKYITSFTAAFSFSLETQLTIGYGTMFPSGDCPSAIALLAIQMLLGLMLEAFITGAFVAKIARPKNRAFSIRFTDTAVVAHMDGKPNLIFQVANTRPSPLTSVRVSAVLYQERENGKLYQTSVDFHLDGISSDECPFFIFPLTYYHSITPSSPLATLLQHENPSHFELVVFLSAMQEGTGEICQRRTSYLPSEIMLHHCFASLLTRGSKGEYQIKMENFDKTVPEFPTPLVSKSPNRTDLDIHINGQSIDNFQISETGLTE

An. gambiae = assay: mosquito fecundity, eggs laid; assay type: in vivo, Anopheles gambiae; settings: 72 h post blood feeding; VU041 ~1 μg/mg, VU937 ~10 μg/mg
Experimental: Briefly, adult female mosquitoes were given access to an anesthetized mouse for 60 min. […] After treatment, individual female mosquitoes were transferred to Drosophila vials (Fisher Scientific, Pittsburgh, OA) containing 2 mL of water. The total number of eggs was counted 72 hours after each mosquito was transferred into a vial. Any mosquitoes that died during this 72-hour period were excluded from the analysis. All assays were performed in an environmental chamber that was maintained at 27° C. and 75% relative humidity; mosquitoes were given access to 10% sucrose solution ad libitum. At least 25 female mosquitoes were used per replicate for each treatment group; each treatment was repeated on three separate broods, giving a total number of individuals from 75-113 for each group.

[3] = tested on: isolated tick salivary gland; assay: ion secretion in saliva of the isolated tick salivary gland; design: species or system Amblyomma americanum
Ae. aegypti [4] = assay: mosquito fecundity, eggs laid; assay type: in vivo, Aedes aegypti; settings: 72 h post blood feeding; 3.4 μg/mg mosquito
Experimental: The mosquitoes were returned to rearing conditions for 24 h, after which they were transferred to individual egg-laying glass tubes 21 mm×70 mm (Fisher Scientific, Pittsburgh, Pa.) with a piece of coffee filter ([…] USA, Clearwater, Fla.) cut to fit the bottom of the tube. The filter was wetted with 150 μl of dH2O, and the open end of the tube was plugged with a cotton ball. The mosquitoes in their individual egg laying tubes were returned to rearing conditions for an additional 48 h, and the number of eggs laid was counted. Any mosquitoes that died during the 72 h period after blood feeding were excluded from the analysis.

Ae. aegypti [5] = assay: in vivo diuresis assay; design: species or system Aedes aegypti; settings: topical, 1.7 μg/mg mosquito
Experimental: The K^+-PBS contained the following (in mM): 92.2 NaCl, 47.5 KCl, 10 Na2HPO4, and 2 KH2PO4 (pH 7.5). Each treatment group of 5 mosquitoes was transferred into a separate graduated, packed-cell volume tube (MidSci, St. Louis, Mo.) and held for 1 h at 28° C. The volume excreted by the mosquitoes was measured visually via the graduated column at the bottom of the tube. At least 8 replicates (5 mosquitoes per replicate) were performed for each treatment.

O=C(Cn1nc(C(F)(F)F)c2c1CCCC2)N1CCCc2ccccc21 [VU041, 1-(3,4-dihydroquinolin-1(2H)-yl)-2-(3-(trifluoromethyl)-4,5,6,7-tetrahydro-1H-indazol-1-yl)ethan-1-one]
mortality of adult honey bees [1]: did not cause significant mortality; also recorded: not toxic
IC50 (AeKir1): 1.7 µM
reduction of salivary output / saliva secretion compared to control [2]: approximately 60%
inhibition at 30 µM (Kir7.1; concentration of 30 μM): < 10%
IC50 (Kir7.1; means (n = 3), read-out: IC50 μM (95% Cl)): > 30 µM
median number of eggs laid per mosquito (An. gambiae): significantly lower median number of eggs per mosquito
K+ and Na+ ion secretion rates in salivary droplets [3]: significantly reduced
median number of eggs laid per mosquito (Ae. aegypti [4]): significantly lower median number of eggs per mosquito
lowering of diuretic capacity compared to controls (Ae. aegypti [5]): ~51%
